From article PMC10424179, “Disrupting Kaposi’s Sarcoma-Associated Herpesvirus (KSHV) Latent Replication with a Small Molecule Inhibitor” (Journal of Medicinal Chemistry, 2023)
Like-named read-outs stand apart in the source and are kept apart here.

Columns and labels:
[1] = Metabolic stability in mouse liver S9 fraction; type: in vitro ADME; conditions: pooled liver S9 fraction, mouse liver S9, 1 μM compound
Experimental: The next step was an in vitro ADMET profiling of the best seven compounds so far: 9, 11, 14, 19, 20, 21, and 27. The compounds were tested for their kinetic solubility (1% DMSO in PBS, pH 7.4), lipophilicity (chromatographic Log D7.4 value), cellular permeability (using Caco-2 cells), and metabolic stability (using mouse and human liver S9 fractions) (see Table 3). […]
1.7 Metabolic Stability in Liver S9 Fractions
For the evaluation of combined phase I and phase II metabolic stability, the compound (1 μM) was incubated with 1 mg/mL pooled mouse liver S9 fraction (Xenotech, Kansas City, USA) or human liver S9 fraction (Corning, USA), 2 mM NADPH, 1 mM UDPGA, 10 mM MgCl 2, 5 mM GSH and 0.1 mM PAPS at 37 °C for 240 min. The metabolic stability of testosterone, verapamil and ketoconazole were determined in parallel to confirm the enzymatic activity of mouse S9 fractions, for human S9 testosterone, diclofenac and propranolol were used. The incubation was stopped after defined time points by precipitation of aliquots of S9 enzymes with 2 volumes of cold acetonitrile containing internal standard (150 nM diphenhydramine). Samples were stored on ice until the end of the incubation and precipitated protein was removed by centrifugation (15 min, 4 °C, 4,000 g). Concentration of the remaining test compound at the different time points was analyzed by HPLC-MS/MS (TSQ Quantum Access MAX, Thermo Fisher, Dreieich, Germany) and used to determine half -life (t1/2). Values are means of three

[2] = tested on: LANA-mediated replication of TR-containing plasmid pGTR4:73 in HEK293 cells; assay: Cell-based replication assay (Southern blot); conditions: Homo sapiens
Excerpt: Figure 3 (A) Illustration of the replication assay. […] (C) Bar graph of the intensity of the pGTR4:73 band after digestion with MfeI and DpnI on the Southern blot shown in panel B at different concentrations for compound 20. Values are means of two replicates.
For the replication assay (Figure 3A), plasmids containing four copies of the terminal repeat of the viral genome and a LANA expression cassette are transfected into HEK293 cells. […] The cells that can express LANA will now amplify the plasmids with the help of LANA and maintain them over several days of cell growth. Where LANA is not expressed, only the transfected plasmids remain and are slowly thinned out by cell growth. After transfection, cells are treated with the compounds or DMSO and allowed to grow for three days. Then, the plasmid DNA is isolated from the cell. The DNA is digested in two separate batches. First, to linearize them (MfeI) and second, with an enzyme (DpnI) that only digests DNA that has a specific methylation pattern derived from the bacteria, in which these plasmids had been amplified. […] One batch contains both enzymes, and only the replicated linearized DNA remains there. The second batch (control) contains only the linearizing enzyme. […] The DNA is separated on a gel by electrophoresis and transferred to a membrane for immobilization (Southern blot). The DNA can then be visualized on this membrane using an enzyme-labeled probe, since the enzyme can generate chemiluminescence with a specific substrate. This assay is designed to specifically probe the LANA-mediated replication of plasmid DNA indicating on-target cellular activity. We performed the assay in a concentration range between 15.625 and 62.5 μM. For compound 20, we observed the strongest inhibitory effect (Figure 3B,C).
This assay is based on protocols described previously and was modified as described in the following. 4 8 x 10^5 HEK 293 cells were plated per well in a 6-well plate. […]

For `COc1ccc(-c2cc(C)c(-n3cc(-c4ccc(C(=O)O)cc4)nn3)cn2)c(Cl)c1` [Compound 20], the microsomal CLint at 1 µM ([1]; read-out: MetStab Mouse Liver S9 Clint) was under 5.8 µL/min/mg, the half-life at 1 µM ([1]; read-out: MetStab Mouse Liver S9 t1/2) was over 2 h and the inhibition at 62.5 µM ([2]; 72 h, HEK293 cells, 62.5 μM, three days of treatment) was 67%. It also gave an IC50 ([2]; 72 h, HEK293 cells, three days of treatment, estimated from Southern blot, read-out: IC50 value (southern blot)) of 33.2 ± 3.6 µM and an IC50 ([2]; Fig S5B, HEK293 replication assay, read-out: x0 of logistic fit, sigmoidal plot of southern blot (converted)) of 33.2 µM.
